Measured values taken from ChEMBL document CHEMBL5108044, “Discovery of a Novel Potent STAT3 Inhibitor HP590 with Dual p-Tyr705/Ser727 Inhibitory Activity for Gastric Cancer Treatment” (J Med Chem, 2022).
Activity calls are given as the source filed them. The rule behind the calls is not given here.

Assays:
[1] = molecular target: T1, Mitogen-activated protein kinase 13 (Homo sapiens, UniProt O15264); assay: Inhibition of p38delta (unknown origin)
T1 sequence (O15264 whole entry): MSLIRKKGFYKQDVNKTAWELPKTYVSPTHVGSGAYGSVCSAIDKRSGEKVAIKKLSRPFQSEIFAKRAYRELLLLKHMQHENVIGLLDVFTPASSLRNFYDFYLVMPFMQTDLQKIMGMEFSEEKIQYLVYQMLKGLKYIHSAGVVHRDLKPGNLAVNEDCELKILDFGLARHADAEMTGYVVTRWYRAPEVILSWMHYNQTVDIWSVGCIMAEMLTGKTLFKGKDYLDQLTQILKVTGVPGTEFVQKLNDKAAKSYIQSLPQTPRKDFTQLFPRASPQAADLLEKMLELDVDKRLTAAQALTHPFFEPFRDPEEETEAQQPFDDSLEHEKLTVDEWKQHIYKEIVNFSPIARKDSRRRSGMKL

[2] = molecular target: T2, Signal transducer and activator of transcription 3 (Homo sapiens, UniProt P40763); assay: Inhibition of STAT3 phosphorylation at Ser727 residue in human MKN-45 cells upto 40 nM by Western blotting analysis; assay type: cell-based; conditions: time <= 24.0 hrs, TDE = time-dependent effect
T2 sequence (P40763 whole entry): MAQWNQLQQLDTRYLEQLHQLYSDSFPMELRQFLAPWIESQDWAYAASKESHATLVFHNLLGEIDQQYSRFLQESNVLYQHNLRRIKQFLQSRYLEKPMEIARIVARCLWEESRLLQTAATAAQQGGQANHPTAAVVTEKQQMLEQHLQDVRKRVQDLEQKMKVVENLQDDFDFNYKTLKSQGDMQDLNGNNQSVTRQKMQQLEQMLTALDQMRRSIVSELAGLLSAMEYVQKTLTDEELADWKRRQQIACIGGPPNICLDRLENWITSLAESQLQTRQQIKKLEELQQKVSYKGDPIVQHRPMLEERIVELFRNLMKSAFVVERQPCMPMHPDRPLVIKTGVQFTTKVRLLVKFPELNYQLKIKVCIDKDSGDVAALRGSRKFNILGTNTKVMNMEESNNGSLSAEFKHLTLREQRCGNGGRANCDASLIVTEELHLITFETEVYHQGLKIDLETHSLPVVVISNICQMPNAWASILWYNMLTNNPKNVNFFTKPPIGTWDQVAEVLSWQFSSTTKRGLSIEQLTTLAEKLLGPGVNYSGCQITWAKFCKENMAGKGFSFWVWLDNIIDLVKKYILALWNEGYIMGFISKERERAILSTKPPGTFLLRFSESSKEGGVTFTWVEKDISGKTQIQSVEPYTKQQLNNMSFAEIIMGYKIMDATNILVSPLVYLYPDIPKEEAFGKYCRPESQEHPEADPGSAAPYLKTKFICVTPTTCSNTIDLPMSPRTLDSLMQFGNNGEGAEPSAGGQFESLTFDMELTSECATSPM

AGS [3] = assay: Antiproliferative activity against human AGS cells assessed as cell viability incubated for 72 hrs by MTS assay; assay type: functional, cell-based; conditions: dose <= 100.0 nM, DDE = dose-dependent effect
AGS [4] = assay: Induction of apoptosis in human AGS cells assessed as necrotic cells 5 nM incubated for 48 hrs by FITC-annexin V/propidium iodide staining based flow cytometry (reference value: 2.70%); assay type: functional
MKN-45 [5] = assay: In vivo inhibition of STAT3 phosphorylation at Tyr705 residue in human MKN-45 cells xenografted in BALB/c nude mouse at 25 to 50 mg/kg, po qd administered for 5 weeks by western blot analysis; assay type: functional, organism-based; conditions: dose 25-50 mg/kg
[6] = molecular target: T2, Signal transducer and activator of transcription 3; assay: Binding affinity to human STAT3 (127 to 722 residues) assessed as dissociation constant by MST assay
AGS [7] = assay: Potency index, ratio of IC50 for BBI608 to IC50 for test compound for antiproliferative activity against human AGS cells assessed as reduction in cell viability incubated for 72 hrs by MTS assay; assay type: functional
[8] = molecular target: T2, Signal transducer and activator of transcription 3; assay: Inhibition of STAT3 in human AGS cells assessed as downregulation of cyclin D1 expression incubated up to 24 hrs by western blot analysis; assay type: cell-based; conditions: dose <= 40.0 nM, DDE = dose-dependent effect
[9] = molecular target: T2, Signal transducer and activator of transcription 3; assay: Inhibition of STAT3 in human MKN-45 cells assessed as downregulation of Bcl2 expression at 10 to 40 nM incubated for 24 hrs by RT-PCR analysis; assay type: cell-based; conditions: dose 10-40 nM
[10] = Clearance in ICR mouse plasma at 1 mg/kg, iv measured up to 24 hrs by LC-MS/MS analysis; assay type: ADME, organism-based
[11] = molecular target: T2, Signal transducer and activator of transcription 3; assay: Inhibition of STAT3 phosphorylation at Tyr705 residue in human MKN-45 cells upto 40 nM incubated upto 24 hrs by Western blotting analysis; assay type: cell-based
[12] = Toxicity in […] mouse assessed as body weight loss at 25 to 50 mg/kg, po qd administered for 5 weeks; assay type: organism-based; conditions: in vivo, 840 h, dose 25-50 mg/kg
[13] = AUC (0 to infinity) in ICR mouse plasma at 10 mg/kg, po measured up to 24 hrs by LC-MS/MS analysis; assay type: ADME, organism-based; set-up: dose 10 mg/kg, time < 24 hrs, route po
MKN-45 [14] = assay: Antitumor activity against human MKN-45 cells xenografted in BALB/c nude mouse assessed as reduction in Ki67 gene expression at 25 to 50 mg/kg, po qd administered for 5 weeks immunohistochemical analysis; assay type: functional, organism-based; conditions: dose 25-50 mg/kg
[15] = Elimination half life in ICR mouse plasma at 10 mg/kg, po measured up to 24 hrs by LC-MS/MS analysis; assay type: ADME, organism-based; conditions: read-out: beta t1/2 (converted)
[16] = Toxicity in BALB/c nude mouse assessed as body weight loss at 25 to 50 mg/kg, po qd administered for 5 weeks; assay type: organism-based; conditions: in vivo, 840 h, dose 25-50 mg/kg
MKN-45 [17] = assay: In vivo inhibition of STAT3 in human MKN-45 cells xenografted in BALB/c nude mouse assessed as reduction in STAT3 gene expression at 25 to 50 mg/kg, po qd administered for 5 weeks by Western blot analysis; assay type: functional, organism-based; conditions: dose 25-50 mg/kg
MKN-45 [18] = assay: Antiproliferative activity against human MKN-45 cells assessed as reduction in cell viability incubated for 72 hrs by MTS assay; assay type: functional, cell-based; conditions: MKN-45, 72 h
MKN-45 [19] = assay: Induction of apoptosis in human MKN-45 cells assessed as late apoptic cells 20 nM incubated for 48 hrs by FITC-annexin V/propidium iodide staining based flow cytometry (reference value: 17.9%); assay type: functional
MKN-45 [20] = assay: Induction of apoptosis in human MKN-45 cells assessed as late apoptic cells 5 nM incubated for 48 hrs by FITC-annexin V/propidium iodide staining based flow cytometry (reference value: 17.9%); assay type: functional
[21] = molecular target: T2, Signal transducer and activator of transcription 3; assay: Inhibition of STAT3 in human MKN-45 cells assessed as downregulation of Survivin expression at 10 to 40 nM incubated for 24 hrs by RT-PCR analysis; assay type: cell-based; conditions: dose 10-40 nM
[22] = molecular target: T2, Signal transducer and activator of transcription 3; assay: Inhibition of STAT3 in human MKN-45 cells assessed as downregulation of cyclin D1 expression at 10 to 40 nM incubated for 24 hrs by RT-PCR analysis; assay type: cell-based; conditions: dose 10-40 nM
[23] = molecular target: T2, Signal transducer and activator of transcription 3; assay: Inhibition of STAT3 phosphorylation at Ser727 residue in human MKN-45 cells incubated upto 24 hrs by Western blotting analysis; assay type: cell-based; conditions: dose <= 40.0 nM, DDE = dose-dependent effect
[24] = AUC (0 to t) in ICR mouse plasma at 10 mg/kg, po measured up to 24 hrs by LC-MS/MS analysis; assay type: ADME, organism-based; set-up: time < 24 hrs, dose 10 mg/kg, route po
[25] = molecular target: T2, Signal transducer and activator of transcription 3; assay: Inhibition of STAT3 in human AGS cells assessed as downregulation of cyclin D1 expression at 10 to 40 nM incubated for 24 hrs by RT-PCR analysis; assay type: cell-based; conditions: dose 10-40 nM
Cytochrome P450 3A4 = Cytochrome P450 3A4 (Homo sapiens, UniProt P08684); assay: Inhibition of CYP3A4 in human liver microsome; assay type: ADME, microsomes
Cytochrome P450 3A4, sequence (P08684 whole entry): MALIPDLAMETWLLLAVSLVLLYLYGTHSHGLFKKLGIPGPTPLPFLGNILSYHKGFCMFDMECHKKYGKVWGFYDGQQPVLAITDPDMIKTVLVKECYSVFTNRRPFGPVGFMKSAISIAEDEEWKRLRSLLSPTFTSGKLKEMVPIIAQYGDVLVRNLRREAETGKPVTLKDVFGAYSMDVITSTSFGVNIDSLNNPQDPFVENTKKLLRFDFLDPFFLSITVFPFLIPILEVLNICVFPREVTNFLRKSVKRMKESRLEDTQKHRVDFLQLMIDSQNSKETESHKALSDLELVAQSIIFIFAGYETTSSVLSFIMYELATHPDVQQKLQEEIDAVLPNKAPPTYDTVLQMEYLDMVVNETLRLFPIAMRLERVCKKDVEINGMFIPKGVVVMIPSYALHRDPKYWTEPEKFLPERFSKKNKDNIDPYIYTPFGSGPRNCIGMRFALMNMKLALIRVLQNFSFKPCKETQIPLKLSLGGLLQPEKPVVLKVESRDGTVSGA

[26] = Toxicity in […] mouse xenografted with human MKN-45 cells assessed as kidney damage at 25 to 50 mg/kg, po qd administered for 5 weeks by H and E staining based analysis; assay type: organism-based; conditions: in vivo, 840 h, dose 25-50 mg/kg
[27] = Toxicity in […] mouse xenografted with human MKN-45 cells assessed as lung damage at 25 to 50 mg/kg, po qd administered for 5 weeks by H and E staining based analysis; assay type: organism-based; conditions: in vivo, 840 h, dose 25-50 mg/kg
[28] = molecular target: T2, Signal transducer and activator of transcription 3; assay: Inhibition of STAT3 in human AGS cells assessed as downregulation of c-Myc expression incubated up to 24 hrs by western blot analysis; assay type: cell-based; conditions: dose <= 40.0 nM, DDE = dose-dependent effect
[29] = molecular target: T2, Signal transducer and activator of transcription 3; assay: Inhibition of STAT3 in human GES1cells assessed as downregulation of Cyclin D1 expression at 10 to 40 nM incubated for 24 hrs by RT-PCR analysis; assay type: cell-based; conditions: GES1, dose 10-40 nM
[30] = molecular target: T2, Signal transducer and activator of transcription 3; assay: Inhibition of STAT3 phosphorylation at Ser727 residue in human MGC-803 cells upto 40 nM by Western blotting analysis; assay type: cell-based; conditions: time <= 24.0 hrs, TDE = time-dependent effect
[31] = molecular target: T2, Signal transducer and activator of transcription 3; assay: Binding affinity to human STAT3 transfected in MKN-45 cells assessed as change in melting temperature at 5 uM by thermal shift assay; assay type: cell-based

For `O=C(c1ccc(-c2noc(-c3ccc(C(F)(F)F)cc3)n2)cc1)N1CCN(Cc2ccc(OCC(F)(F)F)cc2)CC1`, the IC50 [1] was over 10000 nM, the inhibition [2] was “Tde” and the Activity (AGS [3]) was “Dde”. The Activity (AGS [4]) was 3.96%, the inhibition (MKN-45 [5]) was “Active” and the Kd [6] was 76.4 nM. For the same compound, the “Ratio IC50” value (AGS [7]) was 30, the inhibition [8] was “Dde” and the inhibition [9] was “Active”. For the same compound, the clearance [10] was 7.33 mL/min/kg, the inhibition [11] was 100% and the Activity [12] was “Non-Toxic”. The AUC(0-inf) [13] was 15500 ng·h/mL, the Activity (MKN-45 [14]) was “Active” and the half-life [15] was 16 h. The Activity [16] was “Non-Toxic”, the inhibition (MKN-45 [17]) was “Active” and the IC50 (MKN-45 [18]) was 9.3 nM. For the same compound, the Activity (MKN-45 [19]) was 22%, the Activity (MKN-45 [20]) was 17.1% and the inhibition [21] was “Active”. The inhibition [22] was “Active”, the inhibition [23] was “Dde” and the AUC(0-t) at 24 h [24] was 9400 ng·h/mL. For the same compound, the inhibition [25] was “Active”, the IC50 (Cytochrome P450 3A4) was over 50000 nM and the Activity [26] was “Non-Toxic”. For the same compound, the Activity [27] was “Non-Toxic”, the inhibition [28] was “Dde” and the inhibition [29] was “Active”. The inhibition [30] was “Tde” and the Activity [31] was “Active”.
